Assay [1] concerns male Lewis rats, MIA injected knee. More on the design: method as in Blanco et al. 2016b. The conditions noted are these: results published previously, ref Blanco et al. 2016b; cited from earlier work.
The target of assay [2] is T1, COXl (h) (Homo sapiens, UniProt P23219).
T1 construct: CEREP (contract laboratory that ran the assay)
Description: Off-target activity (CEREP), COX1. The conditions noted are these: 10 μmol/L; obtained at CEREP (Blanco et al. 2016c); Compound 1 value footnoted: non-specific assay interference. The assay is classed as biochemical. From the text: The off‐target activity related to prostaglandin pathway (Table 2) were obtained at CEREP (Blanco et al. 2016c).

Assay [3] relates to male Lewis rats, adjuvant induced arthritis. Description: AIA model of inflammation (paw swelling). The assay is classed as in vivo. The following applies: rat AIA; all 3 doses tested (1, 3, and 10 mg/kg) oral once daily 4 days; P < 0.05 by Dunnett's test. As to the method:
For the monoiodoacetate (MIA) and adjuvant induced arthritis (AIA) studies, male Lewis rats (Envigo, Indianapolis, IN) of approximately 8 weeks of age at the time of disease induction were used. For collagen induced arthritis studies (CIA) female Lewis rats (Charles River) weighing 150–170 g were used. Rats were housed in groups of 2 or 3 per cage and maintained in a constant temperature, and on a 12 h light/12 h dark cycle. Animals had free access to food and water at all times except during data collection.
On Day 0, paw widths of both right and left paws were measured between the lateral and dorsal surfaces using calipers, and a mean paw thickness for each rat was calculated by averaging these measurements. Rats were then inoculated intradermally with 0.25 mg of adjuvant (M. Tuberculosis H37 RA from Difco) in 100 μL of mineral oil at the base of the tail to induce adjuvant disease. Eleven days post inoculation paw widths of both right and left paws were measured again, and the percent change from the Day 0 reading was calculated. […] On the fifth day after dosing started (day 15 post adjuvant injection) the rats were euthanized without further dosing and paw width measured again. The percent increase in mean paw thickness from day 11 to day 15 was then calculated as a measure of paw swelling which is indicative of the amount of inflammation in the paws measured. […]

T1 sequence (P23219 24-599): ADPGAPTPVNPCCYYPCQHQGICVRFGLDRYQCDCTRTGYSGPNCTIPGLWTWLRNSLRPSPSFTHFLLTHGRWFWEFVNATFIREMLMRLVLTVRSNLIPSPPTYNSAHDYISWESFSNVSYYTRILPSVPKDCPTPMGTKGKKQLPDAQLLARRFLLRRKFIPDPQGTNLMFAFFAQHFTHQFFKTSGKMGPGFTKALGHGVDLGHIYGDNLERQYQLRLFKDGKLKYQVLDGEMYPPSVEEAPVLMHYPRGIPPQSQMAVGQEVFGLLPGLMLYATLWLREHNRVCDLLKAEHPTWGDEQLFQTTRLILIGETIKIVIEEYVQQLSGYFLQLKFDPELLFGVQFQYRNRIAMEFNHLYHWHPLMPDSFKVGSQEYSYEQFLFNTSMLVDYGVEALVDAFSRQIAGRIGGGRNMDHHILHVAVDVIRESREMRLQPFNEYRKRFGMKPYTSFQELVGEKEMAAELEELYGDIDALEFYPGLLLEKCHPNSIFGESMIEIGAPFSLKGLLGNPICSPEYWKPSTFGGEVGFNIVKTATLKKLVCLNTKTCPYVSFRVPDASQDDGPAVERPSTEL

Consider `Cc1ccc(N2CCC(O)CC2)nc1C(=O)Nc1c(C)cc(C(=O)O)cc1C` [Compound 1], for which the “efficacy in rat MIA model of pain” value in assay [1] was “effective”.
The term inhibition denotes the drop in the measured response relative to a control, in per cent. Turning to `C[C@H](NC(=O)[C@H]1CCCCN1CCOc1ccccc1)c1ccc(C(=O)O)cc1` [Compound 2], the inhibition at 10 µM in assay [2] was -24%. Moreover, in assay [3], the “increases in paw inflammation (swelling) compared to vehicle” value was “significantly inhibited”.

Source of the values: article PMC5464344, “Analgesic and anti‐inflammatory properties of novel, selective, and potent EP4 receptor antagonists” (Pharmacology Research & Perspectives, 2017).
